Experimental data from PubChem BioAssay (NCI).
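Exposure lasted 48 hours, with cells grown in 96-well plates and compounds tested at five concentrations. TGI denotes the concentration required for complete inhibition of growth.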 Where a SMILES comes first, the peptide text is derived from it. The star is where a group is joined. Fmoc = O=C(OCC1c2ccccc2-c2ccccc21)*; Boc = CC(C)(C)OC(=O)*

Experiments:
Experiment in all cases: NCI-60 cell line screen, 48 h
[1] = test system: ACHN renal
[2] = test system: HCT-15 colon
[3] = test system: K-562 leukemia
[4] = test system: NCI/ADR-RES ovarian
[5] = test system: OVCAR-3 ovarian
[6] = test system: OVCAR-4 ovarian
[7] = test system: PC-3 prostate
[8] = test system: RXF 393 renal
[9] = test system: SNB-19 CNS
[10] = test system: SW-620 colon

| SMILES | TGI [1] [µM] | TGI [2] [µM] | TGI [3] [µM] | TGI [4] [µM] | TGI [5] [µM] | TGI [6] [µM] | TGI [7] [µM] | TGI [8] [µM] | TGI [9] [µM] | TGI [10] [µM] |
| --- | --- | --- | --- | --- | --- | --- | --- | --- | --- | --- |
| CCOC(=O)c1c(N2CCCC2)[nH]c(=O)c(C(c2ccco2)c2c(O)c(C(=O)OCC)c(N3CCCC3)[nH]c2=O)c1O | > 100 | > 100 | > 100 | > 100 | > 100 | > 100 | > 100 | > 100 | > 100 | > 100 |
| CC(C)(C)OC(=O)NCCCCC(NC(=O)OCC1c2ccccc2-c2ccccc21)C(=O)N1CCCC1C(=O)NCC(N)=O (stereo not drawn) (Fmoc-Lys(Boc)-Pro-Gly-NH2; configuration not given here) | 34.6 | 30.1 | > 100 | > 100 | > 100 | 44.6 | > 100 | > 100 | > 100 | > 100 |
| O=C1/C(=C/c2ccccc2O)N=C(c2ccccc2)N1c1nc2ccccc2s1 | 64.3 | 44.9 | > 100 | 52.1 | 54.3 | > 100 | 43.8 | > 100 | – | > 100 |
| O=C/C=C/c1ccco1 | > 100 | > 100 | > 100 | > 100 | > 100 | > 100 | > 100 | > 100 | > 100 | > 100 |
| O=C1CCCC/C1=C\c1ccc(Br)cc1 | 9.18 | – | 31.7 | 12.2 | 44.3 | 46.7 | > 100 | – | 13.2 | > 100 |
| COc1ccc(C(SCCO)(c2ccccc2)c2ccccc2)cc1 | 27.3 | 28.7 | > 100 | 34.2 | 31.8 | 31.4 | 25.4 | 41 | 29.1 | 81.8 |
| COC(=O)C1CCC(=O)N1C(c1ccc(OC)cc1)c1ccc(OC)cc1 (centres undefined) | > 100 | > 100 | > 100 | > 100 | > 100 | > 100 | > 100 | – | > 100 | > 100 |
| NC1CC2NC3CCCCC3NC2CC1N (centres undefined) | > 100 | > 100 | > 100 | > 100 | > 100 | – | > 100 | 94.5 | > 100 | > 100 |
| NCCCNC1(c2cc3ccccc3s2)CCCCC1 | 24.4 | 17.7 | 5.38 | 30.4 | 22.6 | 25.5 | 21 | 17.3 | 22.5 | 21.2 |
| O=C1[C@@H]2[C@@H](c3ccccc3)[C@]2(Cl)C(=O)[C@H]2[C@H](c3ccccc3)[C@@]12Cl | > 100 | > 100 | > 100 | > 100 | > 100 | > 100 | > 100 | > 100 | > 100 | > 100 |
| O=C(/C=C/c1ccc(/C=C/C(=O)c2ccc(O)cc2)cc1)c1ccc(O)cc1 | > 100 | > 100 | > 100 | > 100 | > 100 | – | > 100 | > 100 | > 100 | > 100 |
| CCSc1cc(=O)n(C)c(=O)n1C | > 100 | > 100 | – | > 100 | > 100 | > 100 | > 100 | > 100 | > 100 | > 100 |
| COC(=O)C1=C(O)C(C(=O)OC)[C@]2(O)[C@H](C(=O)OC)[C@H]1C[C@@H](c1c(Cl)cccc1Cl)[C@H]2C(=O)OC (some centres undefined) | 4.86 | 4.49 | 6.92 | 7.01 | 7.87 | 30.4 | 10.5 | 3.92 | 5.13 | 11 |
| CC1C2CC(C(S(=O)(=O)N3CCOCC3)/C2=N\O)C1(C)C (centres undefined) | > 100 | > 100 | > 100 | > 100 | > 100 | > 100 | > 100 | > 100 | > 100 | > 100 |
| Cn1/c(=N\S(=O)(=O)c2ccccc2)n(S(=O)(=O)c2ccccc2)c2ccccc21 | > 100 | > 100 | > 100 | > 100 | > 100 | > 100 | > 100 | > 100 | > 100 | > 100 |
| CCOC(=O)NC(NC1=NCCS1)(C(=O)OCC)C(F)(F)F (centres undefined) | > 100 | > 100 | > 100 | > 100 | > 100 | > 100 | > 100 | > 100 | > 100 | > 100 |
| COc1ccc2oc(OC)c(CC=C(C)C)c(=O)c2c1C | > 100 | > 100 | > 100 | > 100 | > 100 | – | > 100 | – | > 100 | > 100 |
| COc1ccc2sc(-n3nc4ccccc4c3Nc3nc4ccc(OC)cc4s3)nc2c1 | 11.2 | > 72.1 | > 38.9 | 10.4 | 7.45 | 6.82 | 17.4 | 43.3 | 9.26 | 36.4 |
| Fc1ccc2nc3n(c2c1)C(c1c(Cl)cccc1Cl)SC3 (centres undefined) | > 100 | > 100 | – | > 100 | > 100 | > 100 | > 100 | > 100 | > 100 | > 100 |
| CCOC(=O)C1OC(C2(C)OC3(OC4(C=CC3O)OC(C(C)C(=O)C(C)C(O)C(C)CC(C)c3c(Cl)cc(C)c(O)c3C(=O)O)C(C)CC4C)C(C)C2OC)CC1O (centres undefined) | 6.78 | > 20.2 | 5.16 | 20.4 | 3.9 | 4.53 | 17.3 | – | – | 10.5 |
| CC(C)(C)c1cc(C2=NN(c3ccccc3)C(c3ccccc3)C2)cc(C(C)(C)C)c1O (centres undefined) | > 100 | > 100 | > 100 | > 100 | > 100 | > 100 | > 100 | > 100 | > 100 | > 100 |
| O=S(=O)(O)ON=C1c2ccccc2-c2ccccc21 | > 100 | – | > 100 | > 100 | > 100 | > 100 | > 100 | > 100 | > 100 | > 100 |
| O=c1oc2cc(O)ccc2c(O)c1C(c1cccnc1)c1c(O)c2ccc(O)cc2oc1=O | > 100 | > 100 | > 100 | > 100 | > 100 | – | > 100 | > 100 | > 100 | > 100 |

| SMILES | TGI [1] [µM] | TGI [2] [µM] | TGI [3] [µM] | TGI [4] [µM] | TGI [5] [µM] | TGI [6] [µM] | TGI [7] [µM] | TGI [8] [µM] | TGI [9] [µM] | TGI [10] [µM] |
| --- | --- | --- | --- | --- | --- | --- | --- | --- | --- | --- |
| O=C(/C=C/c1ccc(O)c(O)c1)c1cc(O)cc(O)c1 | 28.9 | 29.2 | – | 47.7 | 26.4 | 22.2 | 28.5 | 22.8 | 28.5 | – |
| Cn1c2ccccc2c2c(=O)[nH]c(=O)[nH]c21 | > 100 | > 100 | > 100 | > 100 | > 100 | – | – | > 100 | > 100 | > 100 |
| CCN1CCN(c2nc3ccc([N+](=O)[O-])cc3nc2C(=O)c2ccccc2)CC1 | 29.3 | 25 | > 100 | 29.2 | 30.6 | – | 32.3 | 32.8 | 71.2 | 41.7 |
| CN(C)c1nncc2[nH]cnc12 | > 100 | > 100 | > 100 | > 100 | > 100 | – | > 100 | > 100 | > 100 | > 100 |
| Cc1ccc(OC2CC(n3cnc4ncnc(Cl)c43)OC2Oc2ccc(C)cc2)cc1 (centres undefined) | 10.5 | > 100 | – | 64.9 | 33.9 | > 100 | 36.3 | – | 42.5 | > 100 |
| Cc1ccc(O)c(-c2cc(-c3cccc(Cl)c3)c(C#N)c(N)n2)c1 | 42.1 | 28 | 48.4 | 90.4 | > 100 | 41.3 | 83.4 | 47.8 | – | 40.8 |
| CCOc1ccc(/C=N/[N+](C)(C)C)cc1OCC | > 10 | > 10 | > 10 | > 10 | > 10 | > 10 | > 10 | – | > 10 | > 10 |
| COCOc1c(C(O[Si](C)(C)C(C)(C)C)c2cnc(Sc3ccccc3)n2C)ccc(OC)c1OC (centres undefined) | 6.98 | 4.32 | – | 2.75 | 3.22 | 16.2 | 3.04 | 2.71 | 6.27 | 3.8 |
| Cc1cccnc1/N=C/c1c(O)n(C)c(=O)[nH]c1=O | > 100 | > 100 | – | – | > 100 | > 100 | > 100 | – | > 100 | > 100 |
| Nc1nc(N)c2ncn(Cc3ccccc3CCl)c2n1 | > 100 | > 100 | > 100 | > 100 | > 100 | > 100 | > 100 | – | > 100 | > 100 |
| N=c1c2c(-c3ccccc3)c[nH]c2ncn1N | > 100 | > 100 | > 100 | > 100 | > 100 | > 100 | > 100 | – | > 100 | > 100 |
| CCCCNC(=S)Nc1nc(C(=O)NNC(=S)NC2CCCCC2)cs1 | > 100 | > 100 | > 100 | > 100 | > 100 | > 100 | > 100 | – | – | > 100 |
| CC(=O)OCC1OC(SC2OC(COC(C)=O)C(OC(C)=O)C(OC(C)=O)C2OC(C)=O)C(OC(C)=O)C(OC(C)=O)C1OC(C)=O (centres undefined) | > 100 | > 100 | > 100 | > 100 | > 100 | > 100 | – | > 100 | > 100 | > 100 |
| CC(=O)OC(CCC1(C)OC1COc1ccc(CCNC(=O)c2ccccc2)cc1)C(C)(C)OC(C)=O (centres undefined) | > 100 | > 100 | > 100 | – | 54.5 | > 100 | – | 43.8 | – | > 100 |
| Cn1c(-c2ccccc2)cc2c3ccsc3c3ccsc3c21 | > 100 | > 100 | – | > 100 | > 100 | > 100 | > 100 | > 100 | > 100 | > 100 |
| O=c1[nH]c(=O)n(C2CC(O)C(CO)O2)cc1C1=NC1 (centres undefined) | > 100 | > 100 | – | > 100 | > 100 | > 100 | – | > 100 | > 100 | > 100 |
| Nc1[nH]c(=S)nc2snnc12 | > 100 | > 100 | > 100 | > 100 | > 100 | – | > 100 | > 100 | > 100 | > 100 |
| CC(=O)O[C@@H]1C2=C(C)C=C(O2)[C@H]2O[C@]2(C)C[C@H]2C=C(C(=O)O2)[C@H](OC(C)=O)CC1[C@@]1(C)CO1 (some centres undefined) | 61.6 | 63.6 | 36.5 | > 100 | – | > 100 | > 100 | 36.8 | > 100 | 26.1 |
| O=C(O)c1cnc2[nH]ccn2c1=O | > 100 | > 100 | > 100 | > 100 | > 100 | > 100 | > 100 | – | > 100 | > 100 |
| CCOC(=O)Cc1nc2sc(S(N)(=O)=O)nn2c1Br | 93.3 | 77.5 | > 100 | > 100 | 98.5 | – | 63.9 | 69.8 | > 100 | 48 |
| O=C1CCC(=O)N1n1c(Cc2ccc(Cl)cc2)n[nH]c1=O | > 100 | > 100 | > 100 | > 100 | > 100 | > 100 | > 100 | – | > 100 | > 100 |
| CC(C)C1=CCC2C(=C1)CCC1C(C)(C(=O)O)CCCC21C (centres undefined) (tested in a mixture with another compound) | > 100 | > 100 | – | > 100 | > 100 | > 100 | > 100 | > 100 | – | > 100 |
